Assay [1] concerns the target T1, full length MALT1 (Homo sapiens, UniProt Q9UDY8).
T1 construct: measuring enzymatic activity of full length MALT1 at varying concentrations of compound
T1 sequence (Q9UDY8 1-824): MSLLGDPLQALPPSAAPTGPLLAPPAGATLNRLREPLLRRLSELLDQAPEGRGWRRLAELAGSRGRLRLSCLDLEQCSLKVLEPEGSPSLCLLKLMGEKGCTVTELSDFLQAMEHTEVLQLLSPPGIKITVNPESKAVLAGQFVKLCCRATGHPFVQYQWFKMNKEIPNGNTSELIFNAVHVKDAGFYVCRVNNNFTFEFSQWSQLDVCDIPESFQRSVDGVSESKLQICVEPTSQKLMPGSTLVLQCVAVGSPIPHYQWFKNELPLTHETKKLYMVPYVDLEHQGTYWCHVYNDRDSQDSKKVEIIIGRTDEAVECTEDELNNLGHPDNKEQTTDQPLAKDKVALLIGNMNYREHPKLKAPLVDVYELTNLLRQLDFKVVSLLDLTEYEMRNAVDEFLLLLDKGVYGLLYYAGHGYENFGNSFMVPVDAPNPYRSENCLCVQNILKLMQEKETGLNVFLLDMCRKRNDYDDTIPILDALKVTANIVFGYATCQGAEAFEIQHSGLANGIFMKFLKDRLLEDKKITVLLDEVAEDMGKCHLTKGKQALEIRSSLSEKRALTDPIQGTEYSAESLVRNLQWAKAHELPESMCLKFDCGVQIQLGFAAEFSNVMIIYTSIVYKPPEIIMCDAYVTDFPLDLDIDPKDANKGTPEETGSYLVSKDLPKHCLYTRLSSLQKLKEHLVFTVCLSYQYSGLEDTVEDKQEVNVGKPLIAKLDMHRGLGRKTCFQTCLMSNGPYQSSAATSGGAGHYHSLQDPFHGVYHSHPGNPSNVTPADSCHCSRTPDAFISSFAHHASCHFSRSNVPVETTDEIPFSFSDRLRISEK
In words: MALT1 biochemical assay (fluorogenic peptide substrate cleavage). Conditions: full length MALT1, 15 nM enzyme, 30 μM peptide substrate, 30 min pre-incubation, 60 min reaction; mean if tested more than once. Here is the method:
Inhibitor potency was evaluated by measuring enzymatic activity of full length MALT1 at varying concentrations of compound. The enzymatic assay consists of a single substrate reaction that monitors the release of a fluorescent dye upon cleavage of the peptide substrate. […] The assay buffer consists of 50 mM Hepes, pH 7.5, 0.8 M sodium citrate, 1 mM DTT, 0.004% tween-20, and 0.005% bovine serum albumin (BSA). […] The reaction was quenched after 60 minutes with the addition of iodoacetate at a final concentration of 10 mM. Total fluorescence was measured using an Envision (PerkinElmer) with fluorescence excitation at 485 nm and emission at 520 nm.
The reaction was initiated with the addition of 10 μL of peptide substrate. […] IC50 values were calculated by fitting the concentration-response curves to a four-parameter logistic equation in GraphPad Prism.
“N/A” indicates not tested.

The subject of assay [2] is Jurkat IL-2. In words: Jurkat IL-2 assay (IL-2 inhibition by ELISA after anti-CD3/28/2 stimulation). The format is cell-based. Conditions: Jurkat clone E6.1, IL-2 in supernatant, 30 min pre-incubation, anti-CD3/28/2 stimulation 24 hours, mean if tested more than once. As to the method:
Inhibition was determined in a cell-based assay using Jurkat (ATCC, clone E6.1), an immortalized T-cell line, exposed to a dose response of compound and assessed for viability, and IL-2 inhibition by ELISA. Cells were cultured in RPMI/10% FBS (Invitrogen 11875093, Atlanta Biologicals S12450H), maintained below 3E6/mL and only used in assays while below passage 25. Compounds were stamped by ECHO onto 384w plates (PerkinElmer Culturplate, 6007680). The cells were plated in fresh media on top of compound and incubated for 30 minutes before stimulation with soluble anti-CD3/28/2 (Stemcell, 10970) for 24 hours. Supernatant was collected and assessed for IL-2 (MSD, 384w, L21SA-1). To assess viability of cells treated with compound, cells were lysed with CTG reagent (Promega, G7570), and measured by luminometer. […] IC50s calculated using 4-parameter fit in GraphPad Prism.
“N/A” indicates not tested. For a compound that was tested in more than one experiment, the result shown represents the mean value.
(In general: An ELISA detects its analyte on a solid surface through an enzyme-linked reagent.)

A word on the IC50: it is the midpoint of a concentration-inhibition curve. Consider `CO[C@@H](C)c1c(Nc2ccc([C@H](N(C)C(=O)C3CCN(C(C)=O)CC3)C(F)(F)F)cc2)cnn1-c1cccnc1` [Compound 1.34], for which the IC50 in assay [1] and in assay [2] (Homo sapiens) was 100 to 1000 nM throughout.

Consider `CC(=O)N1CC(C(=O)N(C)[C@@H](c2ccc(Nc3cnn(-c4cccc(C#N)c4)c3C(F)(F)F)cc2)C(F)(F)F)C1` [Compound 1.35], for which the figures for the IC50 in assay [1] and in assay [2] (Homo sapiens) were 100 to 1000 nM and less than 100 nM, respectively.

Regarding `CC(=O)N1CC(C(=O)N(C)[C@@H](c2ccc(Nc3cnn(-c4cccnc4)c3C(F)(F)F)cc2)C(F)(F)F)C1` [Compound 1.36], the half-inhibitory concentration (IC50) in assay [1] and in assay [2] (Homo sapiens) was less than 100 nM each time.

`CC(=O)N1CC(C(=O)N(C)[C@@H](c2ccc(Nc3cnn(-c4ccccn4)c3C(F)(F)F)cc2)C(F)(F)F)C1` [Compound 1.37]: the half-inhibitory concentration (IC50) in assay [1] and in assay [2] (Homo sapiens) was less than 100 nM each time.

`CO[C@@H](C)c1c(Nc2ccc([C@H](N(C)C(=O)C3CN(C(C)=O)C3)C(F)(F)F)cc2)cnn1-c1ccccc1` [Compound 1.38]: the IC50 in assay [1] and in assay [2] (Homo sapiens) was 100 to 1000 nM each time.

Consider `CC(=O)N1CC(C(=O)N(C)[C@@H](c2ccc(Nc3cnn(-c4cccc(C#N)c4)c3C3CC3)cc2)C(F)(F)F)C1` [Compound 1.39], for which the half-inhibitory concentration (IC50) in assay [1] and in assay [2] (Homo sapiens) was 100 to 1000 nM throughout.

Turning to `CC(=O)N1CC(C(=O)N(C)[C@@H](c2ccc(Nc3cnn(-c4ccccn4)c3C3CC3)cc2)C(F)(F)F)C1` [Compound 1.40], the IC50 in assay [1] is less than 100 nM; in assay [2] (Homo sapiens), 100 to 1000 nM.

As for `CN(C(=O)[C@H]1CC[C@H](C(=O)O)CC1)[C@@H](c1ccc(Nc2cnn(-c3ccccc3)c2C(F)(F)F)cc1)C(F)(F)F` [Compound 2.1, (1S,4r)-4-(methyl((S)-2,2,2-trifluoro-1-(4-((1-phenyl-5-(trifluoromethyl)-1H-pyrazol-4-yl)amino)phenyl)ethyl)carbamoyl)cyclohexane-1-carboxylic acid], the half-maximal inhibitory concentration (IC50) in assay [1] and in assay [2] (Homo sapiens) was less than 100 nM each time.

In the case of `CN(C(=O)[C@H]1CC[C@H](C(=O)O)CC1)[C@@H](c1ccc(Nc2cnn(-c3ccncc3)c2C(F)(F)F)cc1)C(F)(F)F` [Compound 2.2], the IC50 in assay [1] and in assay [2] (Homo sapiens) was 100 to 1000 nM each time.

In the case of `CN(C(=O)[C@H]1CC[C@H](C(=O)O)CC1)[C@@H](c1ccc(Nc2cnn(-c3cccnc3)c2C(F)(F)F)cc1)C(F)(F)F` [Compound 2.3], the 50% inhibitory concentration (IC50) is 100 to 1000 nM in assay [1] and less than 100 nM in assay [2] (Homo sapiens).

For `CN(C(=O)[C@H]1CC[C@H](C(=O)O)CC1)[C@@H](c1ccc(Nc2cnn(-c3ccccn3)c2C(F)(F)F)cc1)C(F)(F)F` [Compound 2.4], the 50% inhibitory concentration (IC50) in assay [1] and in assay [2] (Homo sapiens) was less than 100 nM each time.

For the compound `CO[C@@H](C)c1c(Nc2ccc([C@H](N(C)C(=O)[C@H]3CC[C@H](C(=O)O)CC3)C(F)(F)F)cc2)cnn1-c1ccccn1` [Compound 2.5], the figures for the IC50 in assay [1] and in assay [2] (Homo sapiens) were less than 100 nM and 100 to 1000 nM, respectively.

As to `CO[C@@H](C)c1c(Nc2ccc([C@H](N(C)C(=O)[C@H]3CC[C@H](C(=O)O)CC3)C(F)(F)F)cc2)cnn1-c1ccccc1` [Compound 2.6], the concentration for half-maximal inhibition (IC50) in assay [1] and in assay [2] (Homo sapiens) was 100 to 1000 nM throughout.

Take `CO[C@@H](C)c1c(Nc2ccc([C@H](N(C)C(=O)[C@H]3CC[C@H](C(=O)O)CC3)C(F)(F)F)cc2)cnn1-c1ccncc1` [Compound 2.7]: the IC50 is 100 to 1000 nM in assay [1] and greater than 1000 nM in assay [2] (Homo sapiens).

Consider `CO[C@@H](C)c1c(Nc2ccc([C@H](N(C)C(=O)[C@H]3CC[C@H](C(=O)O)CC3)C(F)(F)F)cc2)cnn1-c1cccnc1` [Compound 2.8], for which the 50% inhibitory concentration (IC50) in assay [1] and in assay [2] (Homo sapiens) was 100 to 1000 nM each time.

`CN(C(=O)[C@H]1CC[C@H](C(=O)O)CC1)[C@@H](c1ccc(Nc2cnn(-c3cccnn3)c2C(F)(F)F)cc1)C(F)(F)F` [Compound 2.9]: the 50% inhibitory concentration (IC50) in assay [1] and in assay [2] (Homo sapiens) was less than 100 nM throughout.

Regarding `CO[C@@H](C)c1c(Nc2ccc([C@H](N(C)C(=O)[C@H]3CC[C@H](C(=O)O)CC3)C(F)(F)F)cc2)cnn1-c1cccc(C#N)c1` [Compound 2.10], the IC50 in assay [1] was less than 100 nM; in assay [2] (Homo sapiens), 100 to 1000 nM.

Turning to `CN(C(=O)[C@H]1C[C@H](C(=O)O)C1)[C@@H](c1ccc(Nc2cnn(-c3ccccn3)c2C(F)(F)F)cc1)C(F)(F)F` [Compound 2.11, (1r,3r)-3-{methyl[(1S)-2,2,2-trifluoro-1-(4-{[1-(pyridin-2-yl)-5-(trifluoromethyl)-1H-pyrazol-4-yl]amino}phenyl)ethyl]carbamoyl}cyclobutane-1-carboxylic Acid Amine], the concentration for half-maximal inhibition (IC50) in assay [1] and in assay [2] (Homo sapiens) was less than 100 nM in each case.

As for `CN(C(=O)[C@H]1C[C@@H](C(=O)O)C1)[C@@H](c1ccc(Nc2cnn(-c3ccccn3)c2C(F)(F)F)cc1)C(F)(F)F` [Compound 2.12, (1s,3s)-3-{methyl[(1S)-2,2,2-trifluoro-1-(4-{[1-(pyridin-2-yl)-5-(trifluoromethyl)-1H-pyrazol-4-yl]amino}phenyl)ethyl]carbamoyl}cyclobutane-1-carboxylic Acid Amine], the results for the IC50 in assay [1] and in assay [2] (Homo sapiens) were less than 100 nM and 100 to 1000 nM, respectively.

Take `CN(C(=O)[C@H]1C[C@H](C(=O)O)C1)[C@@H](c1ccc(Nc2cnn(-c3ccccc3)c2C(F)(F)F)cc1)C(F)(F)F` [Compound 2.13]: the IC50 in assay [1] and in assay [2] (Homo sapiens) was less than 100 nM each time.

In the case of `CN(C(=O)[C@H]1C[C@@H](C(=O)O)C1)[C@@H](c1ccc(Nc2cnn(-c3ccccc3)c2C(F)(F)F)cc1)C(F)(F)F` [Compound 2.14], the 50% inhibitory concentration (IC50) was less than 100 nM in assay [1] and 100 to 1000 nM in assay [2] (Homo sapiens).

On to “(1r,4S)—N—((S)-1-(4-((4-cyclopropyl-1,5-naphthyridin-3-yl)amino)phenyl)-2,2,2-trifluoroethyl)-N-methyl-4-(1H-tetrazol-5-yl)cyclohexane-1-carboxamide [Compound 3.1]”, for which the IC50 in assay [1] is greater than 1000 nM; in assay [2], 100 to 1000 nM.

These data come from patent US20250326738A1, “MALT1 Modulators and Uses Thereof” (Rarefied Biosciences, Inc., priority 2022, published 2025).
